Experimental data from the supplement of paper PMC10627819.
Values after ≈ are worked out from the molar mass of the structure shown.

Tests used:
[1] = system: S. aureus Newman; test: fitness (endpoint OD595 vs no drug) (fraction); higher = more growth
How it was run: (§1)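 With the first reading as background, OD595 was measured every 30 min for 14 h in 384-well plates kept at 37 °C and inoculated at OD595 0.01. TSB, LB Lennox or CY was the medium. Fitness is the optical density at the transition into stationary phase divided by the robust mean of no-drug control wells, with a cap of 1.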

[2] = system: S. aureus DSM 20231; test: as above
How it was run: as §1

[3] = system: B. subtilis 168; test: as above
How it was run: as §1

[4] = system: S. pneumoniae D39V; test: as above
How it was run: as §1

[5] = system: S. aureus Newman; test: Bliss interaction score (quartile over a dose matrix) (fitness difference); higher = more antagonism (negative = synergy)
How it was run: (§2)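 Quartiles summarise the Bliss score over technical, biological and donor/recipient replicates, where the score is observed minus expected fitness under a product model. Expected fitness uses single-drug values inferred from combination data. Fitness is OD595 at entry into stationary phase over the plate's robust no-drug mean, capped at 1.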

[6] = system: S. aureus DSM 20231; test: as above
How it was run: as §2

[7] = system: B. subtilis 168; test: as above
How it was run: as §2

[8] = system: S. pneumoniae D39V; test: as above
How it was run: as §2

[9] = system: S. aureus Newman
[10] = system: S. aureus DSM 20231
[11] = system: B. subtilis 168
[12] = system: S. pneumoniae D39V
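Wherever Bliss interaction score (quartile over a dose matrix) is given: first quartile when negative (synergy) and third quartile when positive (antagonism).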

CN(N=O)C(=O)N[C@@H](C=O)[C@@H](O)[C@H](O)[C@H](O)CO [Streptozotocin] + CC1=C\[C@@H](O)CC(=O)Cc2nc(co2)C(=O)N2CCC=C2C(=O)O[C@H](C(C)C)[C@H](C)/C=C/C(=O)NC\C=C\1 [Virginiamycin M1]
fitness, one replicate
Details	first compound 0.15 µg/mL	first compound 0.3 µg/mL	first compound 0.6 µg/mL	first compound 1.2 µg/mL	first compound 2.4 µg/mL	first compound 4.8 µg/mL
[1], partner 0.0625 µg/mL	0.843	0.677	0.491	–	–	–
[1], partner 0.125 µg/mL	0.831	0.682	0.504	–	–	–
[1], partner 0.25 µg/mL	0.822	0.661	0.53	–	–	–
[1], partner 0.5 µg/mL	0.77	0.639	0.55	–	–	–
[1], partner 1 µg/mL	0.765	0.672	0.517	–	–	–
[1], partner 2 µg/mL	0.748	0.629	0.477	–	–	–
[2], partner 0.5 µg/mL	0.616	0.686	0.581	–	–	–
[2], partner 1 µg/mL	0.61	0.69	0.667	–	–	–
[3], partner 0.0625 µg/mL	≥ 1	0.975	0.991	–	–	–
[3], partner 0.125 µg/mL	0.949	0.92	0.944	–	–	–
[3], partner 0.25 µg/mL	≥ 1	≥ 1	0.958	–	–	–
[4], partner 0.15 µg/mL	–	–	–	0.913	0.94	0.88
[4], partner 0.3 µg/mL	–	–	–	0.848	0.93	0.925

fitness
Details	first compound 0.15 µg/mL	first compound 0.3 µg/mL	first compound 0.6 µg/mL	first compound 1.2 µg/mL	first compound 2.4 µg/mL	first compound 4.8 µg/mL
[2], partner 0.0625 µg/mL	0.844	0.791	0.66	–	–	–
[2], partner 0.125 µg/mL	0.88	0.83	0.714	–	–	–
[2], partner 0.25 µg/mL	0.861	0.753	0.681	–	–	–
[4], partner 0.5 µg/mL	–	–	–	0.985	0.99	0.981
[4], partner 1 µg/mL	–	–	–	0.944	0.966	0.968
[4], partner 2 µg/mL	–	–	–	0.935	0.939	0.911

Details	Bliss interaction score
[5]	0.0262
[6]	-0.0415
[7]	0.0477
[8]	-0.0403

Cc1cc(NS(=O)(=O)c2ccc(N)cc2)no1 [Sulfamethoxazol]
fitness
Details	[1]	[2]	[3]	[4]
1 µg/mL	0.968	0.976	0.975	0.954
2 µg/mL	0.984	0.946	0.948	0.984
4 µg/mL	0.978	0.943	0.915	0.987

Details	MIC [µg/mL]
[9]	> 16
[10]	> 16
[11]	> 16
[12]	16 (≈ 63.2 µM)

Cc1cc(NS(=O)(=O)c2ccc(N)cc2)no1 [Sulfamethoxazol] + CC1=C\[C@@H](O)CC(=O)Cc2nc(co2)C(=O)N2CCC=C2C(=O)O[C@H](C(C)C)[C@H](C)/C=C/C(=O)NC\C=C\1 [Virginiamycin M1]
fitness
Details	first compound 1 µg/mL	first compound 2 µg/mL	first compound 4 µg/mL
[1], partner 0.0625 µg/mL	≥ 1	≥ 1	≥ 1
[1], partner 0.125 µg/mL	≥ 1	≥ 1	≥ 1
[1], partner 0.25 µg/mL	≥ 1	≥ 1	≥ 1
[2], partner 0.0625 µg/mL	≥ 1	≥ 1	0.964
[2], partner 0.125 µg/mL	≥ 1	0.995	0.955
[2], partner 0.25 µg/mL	0.944	0.971	0.95
[3], partner 0.0625 µg/mL	0.887	0.905	0.901
[3], partner 0.125 µg/mL	0.878	0.876	0.901
[3], partner 0.25 µg/mL	0.983	0.919	0.993
[4], partner 0.5 µg/mL	0.992	0.99	0.928
[4], partner 1 µg/mL	0.988	0.986	0.917
[4], partner 2 µg/mL	0.906	0.93	0.925

one replicate
Details	fitness
[1], first compound 1 µg/mL, partner 0.5 µg/mL	0.873
[1], first compound 1 µg/mL, partner 1 µg/mL	0.869
[1], first compound 1 µg/mL, partner 2 µg/mL	0.841
[1], first compound 2 µg/mL, partner 0.5 µg/mL	0.911
[1], first compound 2 µg/mL, partner 1 µg/mL	0.925
[1], first compound 2 µg/mL, partner 2 µg/mL	0.809
[1], first compound 4 µg/mL, partner 0.5 µg/mL	0.956
[1], first compound 4 µg/mL, partner 1 µg/mL	0.908
[1], first compound 4 µg/mL, partner 2 µg/mL	0.839
[1], first compound 8 µg/mL, partner 0.0625 µg/mL	0.905
[1], first compound 8 µg/mL, partner 0.125 µg/mL	0.921
[1], first compound 8 µg/mL, partner 0.25 µg/mL	0.945
[2], first compound 1 µg/mL, partner 0.5 µg/mL	0.88
[2], first compound 1 µg/mL, partner 1 µg/mL	0.709
[2], first compound 2 µg/mL, partner 0.5 µg/mL	0.915
[2], first compound 2 µg/mL, partner 1 µg/mL	0.679
[2], first compound 4 µg/mL, partner 0.5 µg/mL	0.797
[2], first compound 4 µg/mL, partner 1 µg/mL	0.8
[3], first compound 0.5 µg/mL, partner 0.0625 µg/mL	0.982
[3], first compound 0.5 µg/mL, partner 0.125 µg/mL	0.928
[3], first compound 0.5 µg/mL, partner 0.25 µg/mL	≥ 1
[4], first compound 1 µg/mL, partner 0.15 µg/mL	0.905
[4], first compound 1 µg/mL, partner 0.3 µg/mL	0.895
[4], first compound 2 µg/mL, partner 0.15 µg/mL	0.923
[4], first compound 2 µg/mL, partner 0.3 µg/mL	0.902
[4], first compound 4 µg/mL, partner 0.15 µg/mL	0.92
[4], first compound 4 µg/mL, partner 0.3 µg/mL	0.913

Details	Bliss interaction score
[5]	0.0283
[6]	0.0829
[7]	0.0577
[8]	-0.05

CC[C@H]1OC(=O)[C@H](C)C(=O)[C@H](C)[C@@H](O[C@@H]2O[C@H](C)C[C@H](N(C)C)[C@H]2O)[C@](C)(OC)C[C@@H](C)C(=O)[C@H](C)[C@H]2N(CCCCn3cnc(-c4cccnc4)c3)C(=O)O[C@]12C [Telithromycin]
Details	MIC [µg/mL]
[9]	0.15 (≈ 0.185 µM)
[10]	0.15 (≈ 0.185 µM)
[12]	0.04 (≈ 0.0493 µM)

Oc1cc(Cl)ccc1Oc1ccc(Cl)cc1Cl [Triclosan]
Details	MIC [µg/mL]
[10]	0.08 (≈ 0.276 µM)
[12]	16 (≈ 55.3 µM)

CC1=C\[C@@H](O)CC(=O)Cc2nc(co2)C(=O)N2CCC=C2C(=O)O[C@H](C(C)C)[C@H](C)/C=C/C(=O)NC\C=C\1 [Virginiamycin M1]
fitness
Details	0.0625 µg/mL	0.125 µg/mL	0.25 µg/mL	0.5 µg/mL	1 µg/mL	2 µg/mL
[1]	0.989	1	≥ 1	–	–	–
[2]	0.994	≥ 1	≥ 1	–	–	–
[3]	0.956	0.943	0.959	–	–	–
[4]	–	–	–	≥ 1	0.997	0.994

Details	MIC [µg/mL]
[9]	2 (≈ 3.81 µM)
[11]	0.5 (≈ 0.951 µM)
[12]	4 (≈ 7.61 µM)
